What all share (assay): inhibition of tumour cell growth, NCI panel, 48 h
Assay [1] deals with A498 renal.
Assay [2] concerns SR leukemia.
The test system of assay [3] is HOP-92 NSCLC.
For assay [4], the system named is SK-MEL-2 melanoma.
In assay [5] the test system is NCI-H23 lung.
Assay [6] relates to U251 CNS.
Assay [7] relates to NCI-H226 lung.
Assay [8] concerns MALME-3M melanoma.
Assay [9] concerns DU-145 prostate.

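Where inhibition never reached the appropriate level, the endpoint shown equals the highest concentration tested. Otherwise, values were interpolated linearly from a five-concentration, 48-hour dose response in 96-well plates. At the GI50, growth is halved. The concentration for full growth arrest is given as TGI.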 Bounds are passed on as bounds.

`COC1C(OC(=S)Nc2ccccc2)c2ccccc2N1C(C)=O` (centres undefined): the TGI in assay [1] was above 100 µM; in [2], above 100 µM; in assay [3], 92.2 µM; in [4] it was above 100 µM; in assay [5] it was above 100 µM; in assay [6], above 100 µM.
Take `CC12CCC(=O)C[C@H]1CCC(OC=O)C2Br` (some centres undefined): the TGI in assay [1], in assay [2], in assay [3], in assay [4], in assay [7] and in assay [5] was above 100 µM in each case. The TGI in assay [8] and in assay [6] was above 100 µM throughout.
On to `Cc1cc2c(=O)c3ccccc3[nH]c2c(C(N)=O)c1C`, for which the TGI in assay [4], in [7], in [5], in [8] and in [6] was above 100 µM each time.
As to `COc1c(O)c2c(=O)cc3c4c5c(cc(=O)c6c(O)c(OC)c(CC(C)O)c(c(c1CC(C)O)c24)c65)OCO3` (centres undefined), the TGI in assay [2] was determined as 9.41 µM; in [3], 5.47 µM; in assay [4] it was 3.57 µM; in [7], 6.66 µM; in assay [5] it was 3.1 µM; in [8], 1.27 µM. For the same compound, in assay [6], the TGI was found to be 4.08 µM.
Regarding `CSc1nc(SC)c2c(C#N)[nH]nc2n1`, the TGI in [1], in assay [2], in assay [3], in assay [4], in [7] and in assay [5] was above 100 µM throughout. Moreover, the TGI in [8] and in [6] was above 100 µM throughout.
As for `Nc1ncn([C@@H]2O[C@H](CO)[C@@H](O)[C@H]2O)c(=O)n1`, the GI50 in assay [1] is 1.41 µM; in assay [2], 3.5 µM; in assay [3], 3.06 µM; in assay [9], 0.775 µM; in assay [4] it was 0.612 µM; in assay [7], 1.39 µM. In addition, the GI50 in [5] is 3.91 µM; in assay [8], 3.65 µM. The TGI in assay [1] is 13.8 µM; in assay [2], above 100 µM; in assay [3] it was 44.5 µM; in [9], 9.34 µM; in assay [4], 3.83 µM; in assay [7] it was 9.63 µM. Besides, the TGI in assay [5] turned out to be 41.1 µM; in [8], 25.3 µM.
In the case of `COc1ccc(OCC(=O)O)c2c1CCCC2=O`, the TGI in [1], in assay [2], in [3], in [4], in assay [7] and in assay [5] was above 100 µM each time. The TGI in assay [8] and in [6] was above 100 µM throughout.
As for `CC(C)(C)c1cc(C(P(=O)(O)O)P(=O)(O)O)cc(C(C)(C)C)c1O`, the TGI in assay [1], in assay [3], in assay [4], in assay [7], in assay [5] and in assay [6] was above 100 µM in each case.
As for `COC(=O)/C(C#N)=C1\N=NNN1c1ccc(OC)cc1`, the TGI in [1], in assay [3], in assay [7], in assay [5], in assay [8] and in assay [6] was above 100 µM throughout.
Consider `O=C(/C(=C/c1ccc(Cl)cc1)c1ccccc1)c1ccccc1`, for which the TGI in [1] is 44.9 µM; in [2], 45.3 µM; in assay [3], 41.7 µM; in assay [4] it was 36.6 µM; in assay [7] it was 31.7 µM; in [5] it was 40.5 µM. Further, the TGI amounted to 31.3 µM in assay [8] and 33.9 µM in assay [6].
`CC(C)C1=Cc2ccc3c(c2C(=O)C1=O)CCCC3(C)C`: the TGI was 34 µM in assay [1]; 6.48 µM in assay [2]; 9.79 µM in assay [3]; 34.6 µM in assay [4]; 35.9 µM in assay [7]; 29.6 µM in assay [5]. Also, the values for the TGI in assay [8] and in assay [6] were 10.5 µM and 27.2 µM, respectively.
Take `COCC(OC)C(CC=C(C#N)C#N)OC` (centres undefined): the TGI in assay [1], in assay [2], in assay [3], in [4], in [5] and in assay [8] was above 100 µM in each case. In [6], the TGI is above 100 µM.
With `COC(=O)/C(=N\NC(N)=S)C(C(=O)OC)C(=O)C(=O)Nc1ccc(C)cc1` (centres undefined), the TGI in [1], in assay [2], in assay [4], in [7], in assay [5] and in assay [8] was above 100 µM each time. The compound also displayed a TGI in assay [6] above 100 µM.
As to `CCCCCCCCCCCCCCCC(=O)OCCOCCOCCOCc1ccccc1`, the TGI in assay [1] is above 100 µM; in assay [3], 69.4 µM; in [4] it was above 100 µM; in assay [7], above 100 µM; in [5], above 100 µM; in assay [8], above 100 µM. Moreover, in [6], the TGI is above 100 µM.
For the compound `COC(=O)C(=Cc1cc(OC)c(OC)c(OC)c1-c1cc2c(cc1C1(C)OCCS1)OCO2)C(=O)OC` (centres undefined), the TGI in assay [2] is above 100 µM; in assay [3] it was 37.6 µM; in [4], 69.6 µM; in assay [7], above 100 µM; in assay [5], above 100 µM; in assay [8], above 100 µM. In assay [6], this compound displayed a TGI above 100 µM.
Consider `O=C(OC1CCC(=C2SCCCS2)[C@H]1C1SCCCS1)c1ccccc1` (some centres undefined), for which the TGI in assay [1], in assay [3], in [4], in assay [7], in [5] and in assay [8] was above 100 µM in each case. This compound also showed a TGI in assay [6] above 100 µM.
`O=C(CC1C(=O)Nc2ccccc2S1=O)Nc1cc(Cl)ccc1Cl` (centres undefined): the TGI in assay [1], in assay [2], in assay [3], in assay [4], in [7] and in assay [5] was above 100 µM each time. Further, the TGI in [8] and in [6] was above 100 µM in each case.
`COC(=O)C1CCCC2(C1)OCCO2` (centres undefined): the TGI in assay [1], in assay [2], in [3], in assay [4], in assay [7] and in [5] was above 100 µM each time. For the same compound, the TGI in [8] and in assay [6] was above 100 µM throughout.
On to `CN1CCC(=O)/C(=C/c2ccccc2)C1`, for which the TGI was 33 µM in [1]; 61.3 µM in assay [2]; 31.9 µM in assay [3]; 42.1 µM in assay [4]; 32.2 µM in assay [7]; 36.1 µM in [5]. For the same compound, the TGI in [8] worked out at 35.4 µM; in assay [6], 19.1 µM.
For the compound `O=[N+]([O-])c1ccc2occ3c2c1CCC3`, the TGI in assay [1], in assay [2], in assay [3], in assay [4], in [7] and in assay [5] was above 100 µM in each case. Moreover, the TGI in assay [8] and in assay [6] was above 100 µM throughout.
With `C=CCCCCC1CCC2CCC(CCCCC=C)N12` (centres undefined), the TGI in assay [2] is 33.4 µM; in assay [3], 22.8 µM; in assay [4] it was 22.9 µM; in assay [7] it was 34.1 µM; in [8] it was 31.8 µM; in assay [6], 34.6 µM.
In the case of `COc1ccc(CCN(C)C2CCC(C#N)(c3ccc(OC)c(OC)c3)CC2)cc1OC` (centres undefined), the TGI in assay [2], in [3], in [4], in assay [7], in assay [5] and in assay [8] was above 100 µM each time. This compound returned a TGI in assay [6] above 100 µM.
For the compound `COc1ccc2c(c1OCC(=O)O)C(=O)C(CCC(=O)O)CC2` (centres undefined), the TGI in assay [1], in assay [5] and in assay [6] was above 100 µM throughout.
For `CCOC(=O)c1nc2c(OC)nn(O)cc-2c1[N+](=O)[O-]`, the TGI in [1] stood at 36.2 µM; in assay [4] it was 34.9 µM; in assay [7] it was 79.6 µM; in assay [8] it was 32.4 µM; in assay [6], 30.8 µM.
For the compound `Cc1ccccc1C(=O)c1cc(O)ccc1O`, the TGI in [1], in assay [2], in assay [3], in assay [4], in [7] and in assay [5] was above 100 µM in each case. In addition, the TGI in assay [8] and in [6] was above 100 µM throughout.
On to `C#CC1/C(=C\C(=O)OC)CCCC1O` (centres undefined), for which the TGI in [1], in assay [2], in [3], in assay [4], in assay [7] and in assay [5] was above 100 µM throughout. Further, the TGI in [8] and in [6] was above 100 µM each time.
As to `O=C(Nc1cccc(Cl)c1)C(=O)C(C(=O)c1ccc2ccccc2c1)C1OC(=O)c2ccccc21` (centres undefined), the TGI in assay [3] was 54.3 µM; in assay [4], 32.5 µM; in assay [7] it was 11.5 µM; in assay [5] it was 24.8 µM; in [8] it was 30.8 µM; in assay [6], 21.2 µM.
As to `Cc1ccc2nc(/C(=C/c3ccc(/C=C(\NC(=O)c4ccccc4)c4nc5ccc(C)cc5[nH]4)c(C)c3)NC(=O)c3ccccc3)[nH]c2c1`, the TGI in [1] is 53.6 µM; in assay [2] it was above 100 µM; in assay [3], 52 µM; in assay [4], 33.3 µM; in assay [7] it was 77.5 µM; in [5], 45.3 µM. The TGI in assay [8] amounted to 59.9 µM; in assay [6] it was 60.2 µM.
As for `CN(C)C(=S)/N=c1\sn(C)/c(=N\C(=S)N(C)C)n1C`, the TGI was above 100 µM in assay [1]; above 100 µM in [2]; above 100 µM in assay [3]; above 100 µM in assay [7]; above 100 µM in [5]; 75.7 µM in [8]. The TGI in assay [6] is above 100 µM.
As to `CN1CCN(c2ccc(Nc3cc(-c4cccc(-n5ccc6cc(C7CC7)cc(F)c6c5=O)c4CO)cn(C)c3=O)nc2)CC1`, the GI50 is 2.51 µM in assay [1]; 1.79 µM in [2]; 1.89 µM in assay [3]; 7.9 µM in [9]; 15 µM in assay [4]; 10.2 µM in assay [7]. For the same compound, the values for the GI50 in [5], in [8] and in [6] were 13.6 µM, 2.25 µM and 3.47 µM, respectively. Further, the TGI is 9.26 µM in assay [1]; 5.27 µM in assay [2]; 8.42 µM in assay [3]; 22 µM in assay [9]; 35.1 µM in assay [4]; 30.1 µM in assay [7]. The TGI amounted to 37.3 µM in assay [5], 4.79 µM in assay [8] and 14 µM in assay [6].
With `COc1cc(OC)c2c(=O)cc(-c3ccc(OC)c(OC)c3OC)oc2c1`, the TGI in assay [3], in [4], in assay [7], in assay [5] and in assay [8] was above 100 µM each time.
In the case of `C/C(CC(=O)Nc1ccc(C)c(C)c1)=N\N(c1ccccc1)c1ccccc1`, the TGI in [1] was above 100 µM; in assay [2], 51.2 µM; in [3], above 100 µM; in assay [4], above 100 µM; in [7] it was above 100 µM; in [5], above 100 µM. For the same compound, the TGI is above 100 µM in assay [8] and 30.5 µM in [6].
For the compound `c1ccc2c(OCCSCCCCCCCCCCSCCOc3cccc4ccccc34)cccc2c1`, the TGI in assay [1], in assay [3], in [4], in assay [7], in [5] and in assay [8] was above 100 µM in each case. This compound also displayed a TGI in [6] above 100 µM.
For the compound `NC1CCN(Cc2ccccc2)CC1`, the GI50 in assay [2], in [3], in [4], in assay [5] and in assay [6] was above 100 µM throughout. The TGI in [2], in assay [3], in assay [4], in assay [5] and in assay [6] was above 100 µM throughout.

These data come from PubChem BioAssay (NCI).
